Target: RET G810R (Homo sapiens (Human), UniProt P07949, G810R)
Experiment: HTRF KinEASE-TK kinase activity test, RET G810R
Conditions: for inhibitory activity against RET G810R relative to that of selpercatinib (LOXO-292): fold versus selpercatinib (LOXO-292); for IC50: read-out: RET G810R IC50, HTRF kinase assay

RET G810R, sequence (P07949 29-1114 G810R): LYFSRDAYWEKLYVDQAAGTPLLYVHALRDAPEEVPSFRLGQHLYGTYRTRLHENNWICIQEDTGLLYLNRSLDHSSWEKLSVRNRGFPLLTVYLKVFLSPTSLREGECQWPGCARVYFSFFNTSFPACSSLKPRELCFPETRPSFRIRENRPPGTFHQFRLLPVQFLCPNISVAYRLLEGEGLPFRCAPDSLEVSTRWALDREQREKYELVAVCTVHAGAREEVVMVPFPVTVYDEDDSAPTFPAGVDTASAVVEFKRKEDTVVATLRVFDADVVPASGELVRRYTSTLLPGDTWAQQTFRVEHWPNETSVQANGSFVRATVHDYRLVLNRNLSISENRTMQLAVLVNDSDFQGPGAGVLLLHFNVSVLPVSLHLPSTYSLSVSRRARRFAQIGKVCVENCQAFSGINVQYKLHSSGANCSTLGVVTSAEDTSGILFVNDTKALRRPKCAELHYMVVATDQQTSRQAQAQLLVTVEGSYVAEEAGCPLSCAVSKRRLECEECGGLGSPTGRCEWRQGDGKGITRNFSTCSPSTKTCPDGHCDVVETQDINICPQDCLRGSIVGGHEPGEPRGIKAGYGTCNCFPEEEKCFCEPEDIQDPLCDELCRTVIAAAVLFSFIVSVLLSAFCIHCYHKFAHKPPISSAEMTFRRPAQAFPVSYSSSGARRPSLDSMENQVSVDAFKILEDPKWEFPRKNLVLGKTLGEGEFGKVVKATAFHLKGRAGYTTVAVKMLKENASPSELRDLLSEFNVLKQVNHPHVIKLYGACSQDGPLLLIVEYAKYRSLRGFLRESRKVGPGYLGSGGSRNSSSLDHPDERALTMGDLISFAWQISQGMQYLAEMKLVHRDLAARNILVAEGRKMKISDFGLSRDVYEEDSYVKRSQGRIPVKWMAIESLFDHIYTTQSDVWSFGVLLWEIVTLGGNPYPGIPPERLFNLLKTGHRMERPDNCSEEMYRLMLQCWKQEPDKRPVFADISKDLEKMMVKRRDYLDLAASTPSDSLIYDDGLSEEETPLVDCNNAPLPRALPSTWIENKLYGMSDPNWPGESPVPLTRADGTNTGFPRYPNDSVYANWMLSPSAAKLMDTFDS

inhibitory activity against RET G810R relative to that of selpercatinib (LOXO-292)	IC50	Compound
≥ 10 times	1.6 nM	CCOc1cc(-c2ccc(N3CCC(CO)(NC(=O)c4cc(F)ccc4F)CC3)nc2)c2c3cn[nH]c3nn2c1 [Compound 291, N-(1-(5-(6-ethoxy-1H-pyrazolo[3′,4′:3,4]pyrazolo[1,5-α]pyridin-4-yl)pyridin-2-yl)-4-(hydroxymethyl)piperidin-4-yl)-2,5-difluorobenzamide]
≥ 10 times	1.6 nM	CCOc1cc(-c2ccc(N3CCC(CN(C)C)(NC(=O)c4c(F)cccc4F)CC3)nc2)c2c3cn[nH]c3nn2c1 [Compound 234, N-(4-((dimethylamino)methyl)-1-(5-(6-ethoxy-1H-pyrazolo[3′,4′:3,4]pyrazolo[1,5-α]pyridin-4-yl)pyridin-2-yl)piperidin-4-yl)-2,6-difluorobenzamide]
–	38.3 nM	CCOc1cc(-c2ccc(N3CCN(Cc4ccc(OC)nc4)C4(CC4)C3)nc2)c2c3cn[nH]c3nn2c1 [Compound 165, 6-ethoxy-4-(6-(4-((6-methoxypyridin-3-yl)methylene)-4,7-diazaspiro[2.5]octan-7-yl)pyridin-3-yl) -1H-pyrazolo[3′,4′:3,4]pyrazolo[1,5-α]pyridine]
≥ 10 times	2.1 nM	CCOc1cc(-c2ccc(N3CC[C@H](NC(=O)c4ccccc4C#N)[C@H](O)C3)nc2)c2c3cn[nH]c3nn2c1 [Compound 280, 2-cyano-N-((3R,4S)-1-(5-(6-ethoxy-1H-pyrazolo[3′,4′:3,4]pyrazolo[1,5-α]pyridin-4-yl)pyridin-2-yl)-3-hydroxypiperidin-4-yl)benzamide]
–	33.7 nM	CCOc1cc(-c2ccc(N3CC4(CCCN(C(=O)c5c(F)cccc5Cl)C4)C3)nc2)c2c3cn[nH]c3nn2c1 [Compound 193, N-(2-(5-(6-ethoxy-1H-pyrazolo[3′,4′:3,4]pyrazolo[1,5-α]pyridin-4-yl)pyridin-2-yl)-2,6-diazaspiro [3.5]nonan-6-yl)-2-chloro-6-fluorobenzamide]
–	4.4 nM	CCOc1cc(-c2ccc(N3CCC(CO)(NC(=O)c4cc(F)ccc4F)CC3)nc2)c2c3cn[nH]c3nn2c1 [Compound 150, N-(1-(5-(6-ethoxy-1H-pyrazolo[3′,4′:3,4]pyrazolo[1,5-α]pyridin-4-yl)pyridin-2-yl)-4-(hydroxymethyl)piperidin-4-yl)-2,5-difluorobenzamide]
–	6.9 nM	CCOc1cc(-c2cnc(N3CCC(C)(NC(=O)c4c(F)ccc(F)c4F)CC3)cn2)c2c3cn[nH]c3nn2c1 [Compound 57, N-(1-(5-(6-ethoxy-1H-pyrazolo[3′,4′:3,4]pyrazolo[1,5-α]pyridin-4-yl)pyrazin-2-yl)-4-methylpiperidin-4-yl)-2,3,6-trifluorobenzamide]
≥ 10 times	2.9 nM	CCOc1cc(-c2ccc(N3CC[C@H](NC(=O)c4c(C)cccc4Cl)[C@@H](N)C3)nc2)c2c3cn[nH]c3nn2c1 [Compound 48, N-((3S,4S)-3-amino-1-(5-(6-ethoxy-1H-pyrazolo[3′,4′:3,4]pyrazolo[1,5-α]pyridin-4-yl)pyridin-2-yl)piperidin-4-yl)-2-chloro-6-methylbenzamide]
–	5.7 nM	CCOc1cc(-c2ccc(N3CCC(CN4CCC4)(C(=O)NCC(C)C)CC3)nc2)c2c3cn[nH]c3nn2c1 [Compound 36, 4-(azetidin-1-ylmethyl)-1-(5-(6-ethoxy-1H-pyrazolo[3′,4′:3,4]pyrazolo[1,5-α]pyridin-4-yl)pyridin-2-yl)-N-isobutylpiperidine-4-carboxamide]

Compound	inhibitory activity against RET G810R relative to that of selpercatinib (LOXO-292)	IC50
COc1ccc(CN2C3CC2CN(c2ccc(-c4cc(P(C)(C)=O)cn5nc6[nH]ncc6c45)cn2)C3)cn1 [Compound 237, (4-(6-(6-((6-methoxypyridin-3-yl)methyl)-3,6-diazabicyclo[3.1.1]heptan-3-yl)pyridin-3-yl)-1H-pyrazolo[3′,4′:3,4]pyrazolo[1,5-α]pyridin-6-yl)dimethylphosphine oxide]	–	112 nM

Source: patent publication US20240174674A1, “NITROGEN-CONTAINING POLYCYCLIC FUSED RING COMPOUND, PHARMACEUTICAL COMPOSITION THEREOF, PREPARATION METHOD THEREFOR, AND USE THEREOF” (APPLIED PHARMACEUTICAL SCIENCE, INC., priority 2021, published 2024)
